Converted amounts (≈) assume the structure as drawn.
Key:
[1] = system: Aphidius rhopalosiphi; test: LR50; higher = less toxic; details: acute; duration: 48 hours; mortality
[2] = system: Tagia sp.; details: mortality
[3] = system: Colinus virginianus; details: reproduction developmental
[4] = system: Rattus norvegicus; details: acute; oral; mortality
[5] = system: Apis mellifera; details: acute; duration: 48 hours; dermal; mortality
[6] = system: Oncorhynchus mykiss
[7] = system: Anas platyrhynchos; details: short-term; duration: 5 days; oral; feed; mortality
[8] = system: Coturnix japonica; details: acute; oral; mortality
[9] = system: Canidae; details: subchronic; duration: 90 days; oral; diet; Dog Other; clinical signs
[10] = system: Daphnia magna; details: chronic/long-term; reproduction

## CNC(=O)Oc1cc(C)c(SC)c(C)c1 [Methiocarb]
[1]
  LR50: 0.47 g/ha
[2]; acute
  LC50: 1330 mg/kg
[2]; chronic/long-term
  NOEC: 0.32 mg/kg
[3]
  NOEC: 4.51 mg/kg-day
[4]
  LD50: 19 mg/kg
[5]
  LD50: 0.23 µg/piece
[6]; acute, mortality
  LC50: 0.65 µg/mL (≈ 2.88 µM)
[6]; chronic/long-term, growth
  NOEC: 0.05 mg/L
[7]
  LC50: 1070 mg/kg
[8]
  LD50: 5 mg/kg
[9]
  NOAEL: 1.33 mg/kg-day
[10]
  NOEC: 0.0001 mg/L
